Data from patent US10655161B2, “Diagnostic and prognostic assays based on circulating tyrosine kinase activity” (Quest Diagnostics Investments Incorporated, priority 2010, dated 2020).

Tested on: cTK activity in plasma from a CML patient harboring the T315I mutation
Experiment: Ex vivo plasma cTK activity assay, plasma from a multidrug-resistant CML patient with T315I mutation
Type: biochemical, human
Conditions: 1-5 μM imatinib (FIG. 2A)
Protocol: After incubation at 37° C. for 30 min, the PY20-HRP solution was replaced by HRP substrate solution (TMBZ).

Structure (SMILES): Cc1ccc(NC(=O)c2ccc(CN3CCN(C)CC3)cc2)cc1Nc1nccc(-c2cccnc2)n1 [Imatinib, imatinib]
- Inhibition of cTK activity: little inhibition
